{"source": "patent US5478854A", "about": "“Deoxy taxols” (Bristol-Myers Squibb Company, priority 1994, dated 1995)", "key": {"[1]": {"system": "human colon carcinoma cells HCT-116", "experiment": "In vitro cytotoxicity (XTT assay), 72 h, HCT-116 human colon carcinoma cells", "format": "cell-based", "conditions": "read-out: IC50, drug concentration required to inhibit cell proliferation to 50% of untreated control"}, "[2]": {"system": "human colon carcinoma cells HCT-116/VM46", "experiment": "In vitro cytotoxicity (XTT assay), 72 h, HCT-116/VM46 multi-drug resistant cells", "format": "cell-based", "conditions": "for IC50: Homo sapiens, read-out: IC50, drug concentration required to inhibit cell proliferation to 50% of untreated control"}, "[3]": {"system": "advanced cases of ovarian, breast, and other cancers", "conditions": "NCI trials; cited from earlier work"}, "[4]": {"conditions": "HCT-116/VM46 vs HCT-116, value in parentheses, 4320 min"}, "[5]": {"conditions": "HCT-116/VM46 (teniposide-selected, multi-drug resistant), XTT, 72 h"}}, "note": "Read-outs that look alike come from different tables or passages of the source.", "data": [{"smiles": "CC(=O)O[C@H]1C(=O)[C@]2(C)CC[C@H]3OC[C@@]3(OC(C)=O)[C@H]2[C@H](OC(=O)c2ccccc2)[C@]2(O)C[C@H](OC(=O)[C@H](O)[C@@H](NC(=O)OC(C)(C)C)c3ccccc3)C(C)=C1C2(C)C", "note": "[Ia, N-Debenzoyl-N-t-butoxycarbonyl-7-deoxytaxol]", "values": [{"measurement": "IC50", "setting": "[1]; HCT-116, XTT, 72 h", "value": 2, "unit": "nM"}, {"measurement": "fold resistance relative to HCT116 cells", "setting": "[2]; [4]", "value": 3.5, "unit": "fold"}, {"measurement": "IC50", "setting": "[2]; [5]", "value": 7, "unit": "nM"}]}, {"smiles": "CC(=O)O[C@H]1C(=O)[C@]2(C)CC[C@H]3OC[C@@]3(OC(C)=O)[C@H]2[C@H](OC(=O)c2ccccc2)[C@]2(O)C[C@H](OC(=O)[C@H](O)[C@@H](NC(=O)c3ccccc3)c3ccccc3)C(C)=C1C2(C)C", "note": "[Ib, 7-Deoxytaxol]", "values": [{"measurement": "IC50", "setting": "[1]; HCT-116, XTT, 72 h", "value": 4, "unit": "nM"}, {"measurement": "fold resistance relative to HCT116 cells", "setting": "[2]; [4]", "value": 14, "unit": "fold"}, {"measurement": "IC50", "setting": "[2]; [5]", "value": 55, "unit": "nM"}]}, {"smiles": "CC(=O)O[C@@]12CO[C@@H]1CC[C@@]1(C)C(=O)CC3=C(C)[C@@H](OC(=O)[C@H](O)[C@@H](NC(=O)OC(C)(C)C)c4ccccc4)C[C@@](O)([C@@H](OC(=O)c4ccccc4)[C@H]21)C3(C)C", "note": "[Ic, N-Debenzoyl-N-t-butoxycarbonyl-7-deoxy-10-deoxy-10-desacetyloxytaxol]", "values": [{"measurement": "IC50", "setting": "[1]; HCT-116, 72 h", "value": 12, "unit": "nM"}]}, {"smiles": "CC(=O)O[C@@]12CO[C@@H]1CC[C@@]1(C)C(=O)CC3=C(C)[C@@H](OC(=O)[C@H](O)[C@@H](NC(=O)c4ccccc4)c4ccccc4)C[C@@](O)([C@@H](OC(=O)c4ccccc4)[C@H]21)C3(C)C", "note": "[Id, 7-Deoxy-10-desacetyloxytaxol]", "values": [{"measurement": "IC50", "setting": "[1]; HCT-116, 72 h", "value": 29, "unit": "nM"}]}, {"smiles": "CC(=O)O[C@H]1C(=O)[C@@]2(C)[C@H]([C@H](OC(=O)c3ccccc3)[C@]3(O)C[C@H](OC(=O)[C@H](O)[C@@H](NC(=O)c4ccccc4)c4ccccc4)C(C)=C1C3(C)C)[C@]1(OC(C)=O)CO[C@@H]1C[C@@H]2O", "note": "[Taxol]", "values": [{"measurement": "IC50", "setting": "[1]; HCT-116, 72 h", "value": 4, "unit": "nM"}, {"measurement": "clinical results in advanced cancers (in words)", "setting": "[3]", "value": "promising results"}, {"measurement": "IC50", "setting": "[2]; HCT-116/VM46, 72 h", "value": 440, "unit": "nM"}, {"measurement": "fold resistance relative to HCT116 cells", "setting": "[2]; human, hct-116/vm46 vs hct-116, 4320 min", "value": 124, "unit": "fold"}]}, {"smiles": "CC(=O)O[C@@]12CO[C@@H]1C[C@H](O)[C@@]1(C)C(=O)[C@H](O)C3=C(C)[C@@H](OC(=O)[C@H](O)[C@@H](NC(=O)OC(C)(C)C)c4ccccc4)C[C@@](O)([C@@H](OC(=O)c4ccccc4)[C@H]21)C3(C)C", "note": "[taxotere, reference compound]", "values": [{"measurement": "IC50", "setting": "[1]; HCT-116, XTT, 72 h", "value": 4, "unit": "nM"}, {"measurement": "fold resistance relative to HCT116 cells", "setting": "[2]; [4]", "value": 53, "unit": "fold"}, {"measurement": "IC50", "setting": "[2]; [5]", "value": 213, "unit": "nM"}]}]}
